Measurements published in US20210239681A1, “COMPOSITIONS AND METHODS FOR […] OF […]-BASED IMMUNOTHERAPEUTICS” (ADVAXIS, INC., priority 2018, published 2021).

What was measured:
Format in all cases: cell-based, human
9mer specific T cells = test: Co-culture of THP-1 with 9mer specific T cells, cytokine production; parameters: IFNγ / IL-10 / IL-12p70 / IL-13 / IL-1β / IL-2 / IL-5 / IL-6 / TNF-α: unit not given here; details: for IFNγ production, with 9mer specific T cells: Listeria MOI of 10, optical density
Excerpt: (§1) Analysis Kits and Reagents: Analysis of cytokine concentrations in culture medium used the U-plex assay kits from Meso Scale Discovery. Expression of T cell receptors specific for E7 peptide bound to HLA-A*02:01 was detected using HLA-A*02:01/peptide tetramers from MBL International (Woburn, Mass.).
(§2) There were several possible explanations for the muted response with THP-1 cells infected with ADSX11: including failure of THP-1 cells to process the 10mer epitope from full length E7 protein, failure of the THP-1 cells to present the processed 10mer E7 peptide on HLA-A*02:01, insufficient incubation of the infected cells to allow synthesis of the E7 protein and accumulation of the MHC/peptide complex on the cell surface, and/or an inhibitory effect of gentamicin. A culture of T cells specific for the 9mer epitope was used as well as a new culture of 10mer specific T cells. The THP-1 cells were infected as before with XFL7 or ADXS11-001 at an MOI of 10. After treatment with gentamicin for one hour, the cells were cultured overnight in the absence of gentamicin. The next day the infected cells were collected and co-cultured with 9mer or 10mer specific T cells. These co-cultures were set up in standard X-VIVO 15 and X-VIVO 15 without gentamicin or phenol red. The co-cultures were incubated overnight before collecting medium for cytokine analysis. The medium was tested for IFNγ concentrations and optical density. […] In addition, the 10mer specific T cells recognized ADXS11-001 infected THP-1 when there was no gentamicin in the medium.
(§3) To further explore the importance of the overnight incubation of infected THP-1, THP-1 cells infected overnight were compared to THP-1 cells infected for 2 hours. T cells specific for 9mer and 10mer peptides were co-cultured with each of the THP-1 cells and with uninfected or peptide exposed THP-1. As before, medium was collected after an overnight co-culture and cytokines were measured.
(§4) Optimization of infection time required for E7 presentation. THP-1 infected and cultured overnight compared to THP-1 infected for 2 hours and used after gentamicin treatment. Both 9-mer specific T cells and 10-mer specific T cells used. Assays were performed using X-VIVO 15 medium without gentamicin. The following cytokines were measured: IFNγ, IL-1β, IL-2, IL-10, IL-12p70, IL-13, IL-5, IL-6, TNFα.

HPV E7 Specific T cells = test: THP-1/T cell co-culture: MOI, infection time and cell ratio titration; parameters: IFNγ / IL-1β / IL-6 / TNF-α: unit not given here; details: for IFNγ production / IFNγ / IL-1β / IL-6 / TNF-α: THP-1 + peptide; for IFNγ production: THP-1 Cells 40000
Description: A separate experiment was performed with a range of MOI and 5 hours infection time. In this experiment only IFNγ was measured since this cytokine is only made by the T cells, not THP-1 cells. While there was still recognition of the ADXS11-001 infected THP-1 cells it was not as great as that observed in overnight cultures when compared to the peptide incubated THP-1.
The MOI used for infection was varied over a range of bacterial concentration. In Table 12 the effect of the different MOI on cytokine secretion by THP-1 is shown. […] Secretion of IFNγ by the T cells was related to the MOI with higher MOI stimulating higher IFNγ production, though there was significant IFNγ at all MOI.
Cell number and ratio of T cells to THP-1 cells was also analyzed. The above experiments all used 20,000 T cells and 20,000 THP-1 cells per well (1:1 ratio). We initially investigated the effect of cell number using THP-1 incubated with peptide. The number of both T cells and THP-1 were varied. THP-1 cells ranging from 40,000 cells to 5000 cells per well were incubated with T cells ranging from 20,000 to 5000 cells per well. Effect of varying THP-1 to T cell ratio on IFNγ production was investigated at both higher (1 μg/ml) and lower (0.1 μg/ml) peptide concentrations.
We investigated if this effect is reproducible in infected THP cells. Varying concentration of infected THP-1 cells ranging from 40000 to 10000 cells per well were incubated with T cells ranging from 40000 to 10000 cells per well to identify the optimum cell ratio for the assay. The effect of cell ratio on IFNγ production is similar to the effect observed with peptide incubation.
Titration studies with different multiplicity of infection (MOI). THP cells were infected for 2 hours with 3 different dilutions (MOI) of Listeria. Infected or uninfected THP cells were then cultured overnight for 24 hours before co-culturing the T cells. Cells were co-cultured overnight before cytokine analysis.

THP-1 cells = test: Intracellular cytokine staining of THP-1 cells; details: FIGS. 3A-3C, FIG. 10
Description: To identify cytokines that can be used to measure potency of a Listeria-based therapeutic the following tests were performed. Intracellular cytokine staining was used to detect T cells specificity. THP-1 were incubated with peptide overnight, mixed with T cells from above and centrifuged. The collected cells were then co-cultured at 37° C. for 1 hour. Brefeldin A was then added and the cells were co-cultured for another 4 hours. Brefeldin A inhibits secretion and permits analysis by flow cytometry. Cell were then stained to identify dead cells and CD8+ cells. The cell were then fixed and stained for IFNγ (using fix and permeabilization buffer from eBioscience/Invitrogen).
Intracellular cytokine staining of THP-1 cells.

10mer specific T cells = test: Co-culture of THP-1 with 10mer specific T cells, cytokine production; parameters: IFNγ / IL-10 / IL-13 / IL-1β / IL-2 / IL-5 / IL-6 / TNF-α: unit not given here; details: for IFNγ production, with 10mer specific T cells: Listeria MOI of 10, optical density
Excerpt: as §1, §2, §3, §4

[1] = 9mer T cells + peptide exposed THP-1, overnight co-culture
[2] = 10mer T cells + peptide exposed THP-1, overnight co-culture

YMLDLQPETT [10mer] was tested. Which “IFNγ production, with 9mer specific T cells” value (9mer specific T cells; 50 μg/mL gentamicin) did it give?
Its value is 0.075.

What about the IFNγ (9mer specific T cells; [1]) of the same sequence?
Its IFNγ is 112.

What about the IL-1β (9mer specific T cells; [1]) of the same sequence?
Its IL-1β is “<LLOD”.

What about the IL-2 (9mer specific T cells; [1]) of the same sequence?
The IL-2 was 3.

What about the IL-5 (9mer specific T cells; [1]) of the same sequence?
Its IL-5 is “<LLOD”.

What about the IL-6 (9mer specific T cells; [1]) of the same sequence?
Its IL-6 is 0.

And the IL-10 (9mer specific T cells; [1])?
The IL-10 was “<LLOD”.

What about the IL-12p70 (9mer specific T cells; [1]) of the same sequence?
Its IL-12p70 is 0.

And the IL-13 (9mer specific T cells; [1])?
The IL-13 was “<LLOD”.

What about the TNF-α (9mer specific T cells; [1]) of the same sequence?
The TNF-α was 2.

And the “IFNγ production, with 9mer specific T cells” value (9mer specific T cells; Without gentamicin)?
Its value is 0.066.

And the IFNγ production (HPV E7 Specific T cells; T Cells 10000)?
The IFNγ production was 8078.

What about the IFNγ production (HPV E7 Specific T cells; T Cells 20000) of the same sequence?
The IFNγ production was 17968.

What about the IFNγ production (HPV E7 Specific T cells; T Cells 40000) of the same sequence?
The IFNγ production was 34161.

What about the IFNγ (HPV E7 Specific T cells; THP/T cell co-culture) of the same sequence?
The IFNγ was 33835.

And the IL-1β (HPV E7 Specific T cells; THP/T cell co-culture)?
Its IL-1β is 3.

And the IL-6 (HPV E7 Specific T cells; THP/T cell co-culture)?
Its IL-6 is 23.

And the TNF-α (HPV E7 Specific T cells; THP/T cell co-culture)?
Its TNF-α is 697.

And the IFNγ (HPV E7 Specific T cells; co-culture with T cells)?
The IFNγ was 65099.

And the IL-1β (HPV E7 Specific T cells; co-culture with T cells)?
Its IL-1β is 6.

And the IL-6 (HPV E7 Specific T cells; co-culture with T cells)?
The IL-6 was 1243.

What about the TNF-α (HPV E7 Specific T cells; co-culture with T cells) of the same sequence?
Its TNF-α is 2309.

And the “IFNγ Mean” value (HPV E7 Specific T cells; THP-1 incubated with peptide, mean of triplicate)?
The value was 41305 pg/mL.

What about the “Basal IFNγ in THP-1 cells after stimulation with peptide” value (THP-1 cells) of the same sequence?
The value was “not detectable”.

And the “IFNγ production, with 10mer specific T cells” value (10mer specific T cells; 50 μg/mL gentamicin)?
Its value is 0.226.

And the IFNγ (10mer specific T cells; [2])?
The IFNγ was 23328.

What about the IL-1β (10mer specific T cells; [2]) of the same sequence?
The IL-1β was 3.

And the IL-2 (10mer specific T cells; [2])?
The IL-2 was 452.

What about the IL-5 (10mer specific T cells; [2]) of the same sequence?
Its IL-5 is 1.

What about the IL-6 (10mer specific T cells; [2]) of the same sequence?
Its IL-6 is 31.

And the IL-10 (10mer specific T cells; [2])?
The IL-10 was 12.

And the IL-12p70 (10mer specific T cells; [2])?
The IL-12p70 was “<LLOD”.

What about the IL-13 (10mer specific T cells; [2]) of the same sequence?
Its IL-13 is 23.

And the TNF-α (10mer specific T cells; [2])?
The TNF-α was 460.

What about the “IFNγ production, with 10mer specific T cells” value (10mer specific T cells; Without gentamicin) of the same sequence?
The value was 0.200.
